This note sets out measurements from ChEMBL document CHEMBL5728229, “Halo-substituted piperidines as orexin receptor modulators” (2021).

One may read the IC50 as the midpoint of a concentration-inhibition curve.

Experiment [1] deals with T1, Orexin/Hypocretin receptor type 1 (Homo sapiens, UniProt O43613).
T1 sequence (O43613 whole entry): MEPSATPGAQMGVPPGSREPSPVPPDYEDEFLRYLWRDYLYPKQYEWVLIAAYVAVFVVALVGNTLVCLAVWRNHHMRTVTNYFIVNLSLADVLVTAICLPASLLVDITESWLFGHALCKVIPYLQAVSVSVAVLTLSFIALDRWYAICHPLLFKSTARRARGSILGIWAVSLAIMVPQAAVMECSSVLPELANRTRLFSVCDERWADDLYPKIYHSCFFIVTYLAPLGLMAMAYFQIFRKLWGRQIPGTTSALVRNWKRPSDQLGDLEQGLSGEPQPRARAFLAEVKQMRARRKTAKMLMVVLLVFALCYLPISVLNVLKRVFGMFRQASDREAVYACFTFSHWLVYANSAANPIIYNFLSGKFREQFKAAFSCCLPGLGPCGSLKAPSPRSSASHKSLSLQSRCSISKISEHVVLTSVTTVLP
Briefly: (§1) Orexin Receptor Cell-Based Functional Assay: Measurement of [Ca2+]i using a FLIPR: CHO—OX1 or CHO—OX2 cells were seeded into black-walled clear-base 384-well plates (Corning, catalog #3712) at a density of 20,000 cells per well in F12-K medium supplemented with 10% FBS and then incubated in a 5% CO2, 37° C. incubator overnight to reach 90% confluency. The cells were incubated with equal volume of calcium 6 loading buffer (Molecular Devices, Inc.) containing 2.5 mM probenecid at 37° C. for 2 h, followed by test compounds (dose-range 0.1 nM-10 μM) for another 30 min. The plates were then placed into a FLIPR (Molecular Devices, Inc.) to monitor fluorescence (λ excitation 488 nm, λ emission 540 nm) before and after the addition of EC90 of [OX].

Experiment [2] addresses T2, Orexin receptor type 2 (Homo sapiens, UniProt O43614).
T2 sequence (O43614 whole entry): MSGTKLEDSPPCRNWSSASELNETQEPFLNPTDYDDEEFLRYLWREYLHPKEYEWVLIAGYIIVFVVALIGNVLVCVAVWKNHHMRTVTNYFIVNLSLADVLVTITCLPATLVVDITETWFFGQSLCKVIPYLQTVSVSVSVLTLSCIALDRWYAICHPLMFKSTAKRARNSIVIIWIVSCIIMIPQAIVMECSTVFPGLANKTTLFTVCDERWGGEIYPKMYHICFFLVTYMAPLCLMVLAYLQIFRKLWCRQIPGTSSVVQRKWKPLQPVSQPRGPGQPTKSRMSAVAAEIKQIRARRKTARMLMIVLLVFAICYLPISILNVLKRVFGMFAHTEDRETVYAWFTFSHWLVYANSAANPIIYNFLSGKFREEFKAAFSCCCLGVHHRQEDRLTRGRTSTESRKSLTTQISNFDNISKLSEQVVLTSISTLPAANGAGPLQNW
Described as §1.

With `C[C@@H]1CC(F)(F)CN(C(=O)c2nn(C)cc2-c2ncc(F)cn2)[C@@H]1COc1ncc(C(F)(F)F)cc1F`, the IC50 in experiment [1] is 1 µM.
Consider `C[C@@H]1CC(F)(F)CN(C(=O)c2nn(C)cc2-c2ncc(F)cn2)[C@@H]1COc1cnc(C(F)(F)F)cn1`, for which the IC50 in experiment [1] was 1 µM.
Regarding `C[C@@H]1CC(F)(F)CN(C(=O)c2nn(C)cc2-c2ccccc2)[C@@H]1COc1ccc(C(F)(F)F)cn1`, the IC50 was 0.008 µM in experiment [1] and above 5 µM in experiment [2].
